Like-named read-outs stand apart in the source and are kept apart here.
Legend:
[1] = In vivo pharmacokinetic experiment in mice; conditions: C57 mice
Protocol: Healthy male C57 mice were randomly divided into groups with 3 mice in each group, and the test compounds were administrated intragastrically or by intravenous injection. See Table 6 below for specific arrangements:
Each test compound was dissolved in physiological saline to prepare a certain concentration of solution for administration.
One day before administration, the mice were fasted and allowed to drink freely for 12-14 h. The mice were fed 4 h after administration.
0.030 mL of blood was took from each animal each time through the orbit, and anticoagulated with EDTAK2. The collection time points were as follows: in PO group, 5 min, 15 min, 30 min, 1 h, 2 h, 4 h, 6 h, 8 h, 24 h after administration of test substance; in IV group, 2 min, 5 min, 15 min, 30 min, 1 h, 2 h, 4 h, 6 h, 8 h, 24 h after administration of test substance. After blood samples were collected, they were placed on ice and centrifuged to separate the plasma within 30 minutes (centrifugation conditions: 5000 rpm, 10 minutes, 4° C.). The sample were stored at −80° C. before analysis.

[2] = rats, literature (Journal of Psychopharmacology, 2019, 33, 12-24), cited from earlier work
[3] = system: C57 mice; experiment: Forced swimming experiment, intraperitoneal administration to mice; type: in vivo; conditions: for inhibition in vivo at 10 mg/kg: Mus musculus, ip
Protocol: The forced-swimming test is currently the most widely used classic method to evaluate the antidepressant effects of compounds in rodents. […] The time in immobile state of experimental animal is observed and recorded, which can be used to evaluate the effect of antidepressant compounds.
1 h and 24 h after a single intraperitoneal administration of 10 mg/kg, forced swimming tests were respectively carried out to investigate the effects of different compounds on depression-like behaviors of C57 mice.
Experimental animals were 6-week aged C57 mice, male, and C57 mice were purchased from Shanghai SLAC Laboratory Animal Co., Ltd., with a body weight of 20.45±0.19 g. Before the experiment, they arrived at the Animal Feeding Center of Shanghai Institute of Materia Medica, Chinese Academy of Sciences (Animal Production License: SCXK9[Shanghai]2004-0002, usage license: SYXK[Shanghai]2003-0029), and adapted for 3 days or more in animal facilities. They were bred at 6 animals/cage. The breeding environment was room temperature 23±0.2° C., with 12/12 hours alternation of day and night. Before the behavioral test, the animals should be moved to the behavioral test operation room 2 hours in advance to adapt to the environment and reduce their tension.
Preparation of the test product: each test compound was accurately weighed and dissolved in 0.9% NaCl solution, mixed thoroughly, and prepared as a 1 mg/ml solution, set aside.
24 hours before the administration, the mice were placed in a cylindrical tank to adapt to the aquatic environment for 10 min. On the day of the behavioral test, the animals were respectively administered intraperitoneally once at 1 h and 24 h before the behavioral test. The mice were placed individually into a cylindrical glass tank with a height of 30 cm and a diameter of 20 cm. The water depth in the tank was 15 cm, so that the animals could not escape from the glass tank and their feet and tails could not touch the bottom of the tank, the water temperature was 23° C.-25° C. A 6 minute video was taken after the mouse entered into water. Since most animals were very active in the first two minutes, the immobility time in the following 4 minute were calculated (criterion of immobility: the mouse stops struggling in the water, stays still and has small limbs movement to maintain balance or to keep a floating state).
The antidepressant effect of a compound was evaluated by the ability of the compound to reduce the immobility time of the animal in the forced swimming test as compared with the blank group. The shorter the immobility time of the animal to be tested, the higher the inhibition rate and the stronger the antidepressant activity. Inhibition rate1 h(%)=immobility time(blank, 1 h)−immobility time(administration, 1 h)/immobility time(blank, 1 h)×100% Inhibition rate24 h(%)=immobility time(blank, 24 h)−immobility time(administration, 24 h)/immobility time(blank, 24 h)×100%

[4] = system: C57 mice; experiment: Forced swimming experiment, oral administration to mice; type: in vivo; conditions: inhibition of immobility time, C57 mice
Method in brief: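 Male C57 mice (6 weeks) dosed once orally at 20 mg/kg in 0.9% NaCl, tested 1 h and 24 h later after a 10 min pre-swim the day before. Immobility over the last 4 min of a 6 min swim (water 23-25° C); inhibition rate (%) calculated against blank group at each time.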

[5] = cited from earlier work
[6] = in mice, background statement; cited from earlier work
[7] = male, mouse, iv, 5 mg/kg i.v., plasma
[8] = male, mouse, po, 20 mg/kg p.o., plasma
[9] = brain tissue, 50 mg/kg p.o., literature (Journal of Psychopharmacology, 2019, 33, 12-24)

Cl.N[C@@]1(c2ccccc2Cl)CCC[C@@H](O)C1=O [(2R,6R)-HNK, (2R, 6R)-HNK, reference compound]
AUC0-t ([1]; 5 mg/kg i.v., plasma): 2085 ngh/mL
AUC0-∞ ([1]; 5 mg/kg i.v., plasma): 2096 ngh/mL
F ([1]; 20 mg/kg p.o. vs 5 mg/kg i.v.): 66.8%
AUC0-t ([1]; 20 mg/kg p.o., plasma): 5589 ngh/mL
AUC0-∞ ([1]; 20 mg/kg p.o., plasma): 5599 ngh/mL
MRT [1, 7]: 23.4 min
half-life [1, 7]: 20.4 min
clearance ([1]; male, mouse, plasma, iv, 5 mg/kg i.v.): 40.7 mL/min/kg
Vd ([1]; male, mouse, plasma, iv, 5 mg/kg i.v., read-out: Vss): 0.94 L/kg
Cmax [1, 8]: 7180 ng/mL
MRT [1, 8]: 52.5 min
Tmax [1, 8]: 5 min
half-life [1, 8]: 55.8 min
AUC0-∞ ([2]; 10 mg/kg i.v.): 6270 ngh/mL
CL ([2]; 10 mg/kg i.v.): 27 mL/min/kg
T1/2 ([2]; 10 mg/kg i.v.): 480 min
Vss ([2]; 10 mg/kg i.v.): 7.5 L/kg
AUC0-∞ ([2]; 10 mg/kg p.o.): 2650 ngh/mL
Cmax ([2]; 10 mg/kg p.o.): 1500 ng/mL
F ([2]; 10 mg/kg p.o.): 42%
T1/2 ([2]; 10 mg/kg p.o.): 414 min
Tmax ([2]; 10 mg/kg p.o.): 10 min
inhibition in vivo at 10 mg/kg ([3]; 1 h, read-out: 1 h inhibition rate): 31.1%
inhibition in vivo at 10 mg/kg ([3]; 24 h, read-out: 24 h inhibition rate): 27.4%
1 h inhibition rate ([3]; inhibition of immobility time, forced swimming 1 h after single intraperitoneal 10 mg/kg, C57 mice): 31.1 ± 4.0%
24 h inhibition rate ([3]; inhibition of immobility time, forced swimming 24 h after single intraperitoneal 10 mg/kg, C57 mice): 27.4 ± 3.9%
1 h inhibition rate ([4]; forced swimming 1 h after single oral (intragastric) 20 mg/kg): 18.4 ± 1.6%
24 h inhibition rate ([4]; forced swimming 24 h after single oral (intragastric) 20 mg/kg): 19.6 ± 4.4%
Brain tissue concentration ([5]; 10 mg/kg intraperitoneally, literature (Nature, 2016, 533, 481-486; Nature, 2017, 546, E1-E5)): 2562 ng/g
Brain tissue concentration ([5]; 50 mg/kg p.o., 10 min, literature (Journal of Psychopharmacology, 2019, 33, 12-24)): 6490 to 8600 ng/g
AUC0-∞ [5, 9]: 2850 to 5190 ng·h/g
T1/2 [5, 9]: 42 min
T1/2 [6]: < 60 min

From patent US12351565B2, “Aromatic compound and preparation method therefor and use thereof” (SHANGHAI JIANHE PHARMACEUTICAL & TECHNOLOGY CO. LTD., priority 2018, dated 2025)
